Measurements: patent publication US20220227729A1, “IDENTIFICATION AND USE OF KRAS INHIBITORS” (Bayer Aktiengesellschaft, priority 2019, published 2022)

Columns and labels:
[1] = target: recombinant kRas mutant (G12C; C51S; C80L; C118S) (Homo sapiens, UniProt P01116, C118S/C51S/C80L/G12C); test: Covalent binding assay, intact mass LC-MS; conditions: 25 μM protein, 25 μM compound, room temperature, 2 h
Method: The percentage of covalent adduct formation at KRas G12C was determined by intact mass determination. To this end 25 μM recombinant kRas mutant (G12C; C51S; C80L; C118S) (storage buffer: 50 mM Tris, pH=8; 50 mM NaCl) were incubated with 25 μM of compound (1% v/v final DMSO concentration) at room temperature for 2 h. For LC-MS analysis the reaction was acidified by adding 4 μL of 4% v/v TFA to 20 μL reaction volume.
Liquid chromatography-mass spectrometry (LC-MS) analysis was performed using a Waters SYNAPT G2-S quadrupole time-of-flight mass spectrometer connected to a Waters nanoAcquity UPLC system. Samples were loaded on a 2.1×5 mm mass prep C4 guard column (Waters) and desalted with a short gradient (3 min.) of increasing concentrations of acetonitrile at a flow rate of 100 μL/min. Spectra were analyzed by using MassLynx v4.1 software and deconvoluted with the MaxEnt1 algorithm.
Percent conversion was determined by the ratio of signal intensities of apo-kRas and kRas+inhibitor.

KRAS^WT = KRAS^WT (Homo sapiens, UniProt P01116); test: Wild-type KRAS activation by SOS1cat assay, HTRF; conditions: SOS1cat mediated loading of GST-KRAS WT-GDP with fluorescent GTP analogue; 50 nM GST-KRAS WT; read-out: IC50 value biochemical KRAS^wt activation assay
Method: (§1) Preparation of test compound dilutions. A 100-fold concentrated solution of the test compound (50 nL) in DMSO was transferred to microtiter test plates (384 or 1,536 wells, Greiner Bio-One, Germany) using either a Hummingbird liquid handler (Digilab, MA, USA) or an Echo acoustic system (Labcyte, CA, USA). Plates were sealed with adhesive foil or heat-sealed and stored at −20° C. until use. Serial dilutions of test compounds were prepared in 100% DMSO using a Precision Pipetting System (BioTek, USA).
(§2) Measurement and evaluation of inhibition data, calculation of IC50 values. Homogeneous time-resolved fluorescence (HTRF) was measured with a PHERAstar reader (BMG, Germany) using the HTRF module (excitation: 337 nm; emission 1: 620 nm, emission 2: 665 nm). The ratio of the emissions at 665 and 620 nm was used as the specific signal for further evaluation. The data were normalized using the controls: DMSO=0% inhibition, inhibition control wells with inhibitor control solution=100% inhibition. Compounds were tested in duplicates at up to 11 concentrations (e.g. 20 μM, 5.7 μM, 1.6 μM, 0.47 μM, 0.13 μM, 38 nM, 11 nM, 3.1 nM, 0.89 nM, 0.25 nM and 0.073 nM). IC50 values were calculated using a four-parameter fit, with a commercial software package (Genedata Screener, Switzerland).
(§3) KRAS^G12C activation by SOS1^cat assay (“On-assay”). This assay quantifies SOS1^cat mediated loading of KRAS^G12C-GDP with a fluorescent GTP analogue. Detection of successful loading was achieved by measuring resonance energy transfer from anti-GST-terbium (FRET donor) bound to GST-KRAS^G12c to the loaded fluorescent GTP analogue (FRET acceptor). The fluorescent GTP analogue EDA-GTP-DY-647P1 [2′/3′-O-(2-aminoethyl-carbamoyl)guanosine-5′-triphosphate labelled with DY-647P1 (Dyomics GmbH, Germany)] was synthesized by Jena Bioscience (Germany) and supplied as a 1 mM aqueous solution. A KRAS^G12C working solution was prepared in assay buffer [10 mM HEPES pH 7.4 (AppliChem), 150 mM NaCl (Sigma), 5 mM MgCl2 (Sigma), 1 mM DTT (Thermo Fisher), 0.05% BSA Fraction V pH 7.0 (ICN Biomedicals), 0.0025% (v/v) Igepal (Sigma)] containing 100 nM GST-KRAS^G12C and 2 nM anti-GST-terbium (Cisbio, France). A SOS1^cat working solution was prepared in assay buffer containing 20 nM SOS1^cat and 200 nM EDA-GTP-DY-647P1. An inhibitor control solution was prepared in assay buffer containing 200 nM EDA-GTP-DY-647P1 without SOS1^cat. All steps of the assay were performed at 20° C. A volume of 2.5 μL of the KRAS^G12C working solution was added to all wells of the test plate using a Multidrop dispenser (Thermo LabSystems). After 180 min, 2.5 μL of the SOS1^cat working solution was added to all wells, except for the inhibitor control solution wells. After 30 min incubation, HTRF was measured.
Wild-type KRAS activation by SOS1^cat assay. This assay quantifies human SOS1^cat mediated loading of wild-type GST-KRAS^WT-GDP with a fluorescent GTP analogue. The assay was performed similar to the KRAS^G12C activation by SOS1^cat assay. GST-KRAS^G12C was replaced by GST-KRAS^WT, which was used at 50 nM final concentration.

KRAS^G12C = KRAS^G12C (Homo sapiens, UniProt P01116, G12C); test: KRAS G12C activation by SOS1cat assay (On-assay), HTRF; conditions: SOS1cat mediated loading of GST-KRAS G12C-GDP with fluorescent GTP analogue; 180 min preincubation; 20° C.; read-out: IC50 value biochemical KRAS^G12C activation assay
Method: as §1, §2, §3

Row | Covalent Binding Assay (% binding) [1] | IC50 (KRAS^WT) | IC50 (KRAS^G12C) | SMILES
1 | 57% | > 20 µM | 8.4 µM | C=CC(=O)N1CCC(c2nc3ccc(-c4ccc(F)cc4F)cc3c(=O)[nH]2)C1 (stereo not drawn) [Example 13, 6-(2,4-Difluorophenyl)-2-[1-(prop-2-enoyl)pyrrolidin-3-yl]quinazolin-4(3H)-one]
2 | 26% | > 20 µM | > 20 µM | C=CC(=O)N1CCC(c2nc3cc(Cl)c(-c4c(F)cccc4OC)cc3c(=O)[nH]2)C1 (stereo not drawn) [Example 21, 7-Chloro-6-(2-fluoro-6-methoxyphenyl)-2-[1-(prop-2-enoyl)pyrrolidin-3-yl]quinazolin-4(3H)-one]
3 | 31% | > 20 µM | 18 µM | C=CC(=O)N1CCC(c2nc3cc(Cl)c(-c4ccccc4F)cc3c(=O)[nH]2)C1 (stereo not drawn) [Example 22, 7-Chloro-6-(2-fluorophenyl)-2-[1-(prop-2-enoyl)pyrrolidin-3-yl]quinazolin-4(3H)-one]
4 | 4% | > 20 µM | > 20 µM | C=CC(=O)N1CCC(c2nc3ccc(-c4sc(C)nc4C)cc3c(=O)[nH]2)C1 (stereo not drawn) [Example 19, 6-(2,4-dimethyl-1,3-thiazol-5-yl)-2[1-(prop-2-enoyl)pyrrolidin-3-yl]quinazolin-4(3H)-one]
5 | 0% | > 20 µM | > 20 µM | C=CC(=O)N1CCC(c2cc3cc(OC)c(-c4ncccc4F)cc3c(=O)[nH]2)C1 (stereo not drawn) [Example 9, 7-(3-Fluoropyridin-2-yl)-6-methoxy-3-[-1-(prop-2-enoyl)pyrrolidin-3-yl]isoquinolin-1(2H)-one]
6 | 8% | > 20 µM | > 20 µM | C=CC(=O)N1CCC(c2cc3ccc(-c4cccc5[nH]ccc45)cc3c(=O)[nH]2)C1 (stereo not drawn) [Example 3, 7-(1H-Indol-4-yl)-3-[1-(prop-2-enoyl)pyrrolidin-3-yl]isoquinolin-1(2H)-one]
7 | 62% | > 20 µM | > 14 µM | C=CC(=O)N1CCC(c2cc3ncc(-c4ccc(F)cc4F)cc3c(=O)[nH]2)C1 (stereo not drawn) [Example 31, 3-(2,4-Difluorophenyl)-7-[1-(prop-2-enoyl)pyrrolidin-3-yl]-1,6-naphthyridin-5(6H)-one]
8 | 3% | > 20 µM | > 20 µM | C=CC(=O)N1CCC(c2cc3ccc(-c4ccc(F)c(OCC)c4F)cc3c(=O)[nH]2)C1 (stereo not drawn) [Example 6, 7-(3-Ethoxy-2,4-difluorophenyl)-3-[1-(prop-2-enoyl)pyrrolidin-3-yl]isoquinolin-1(2H)-one]
9 | 52% | > 20 µM | 7.3 µM | C=CC(=O)N1CCC(c2nc3ccc(-c4ccccc4CC)cc3c(=O)[nH]2)C1 (stereo not drawn) [Example 15, 6-(2-Ethylphenyl)-2-[1-(prop-2-enoyl)pyrrolidin-3-yl]quinazolin-4(3H)-one]
10 | 31% | > 20 µM | > 7 µM | C=CC(=O)N1CCC(c2cc3ccc(-c4ccc(F)c(F)c4F)cc3c(=O)[nH]2)C1 (stereo not drawn) [Example 7, 3-[1-(Prop-2-enoyl)pyrrolidin-3-yl]-7-(2,3,4-trifluorophenyl)isoquinolin-1(2H)-one]
11 | 73% | > 20 µM | 2.6 µM | C=CC(=O)N1CCC(c2nc3cnc(-c4c(O)cccc4F)cc3c(=O)[nH]2)C1 (stereo not drawn) [Example 39, 6-(2-Fluoro-6-hydroxyphenyl)-2-[1-(prop-2-enoyl)pyrrolidin-3-yl]pyrido[3,4-d]pyrimidin-4(3H)-one]
12 | 22% | > 20 µM | > 20 µM | C=CC(=O)N1CCC(c2nc3ccc(-c4cccc5ncccc45)cc3c(=O)[nH]2)C1 (stereo not drawn) [Example 14, 2-[1-(Prop-2-enoyl)pyrrolidin-3-yl]-6-(quinolin-5-yl)quinazolin-4(3H)-one]

The next lines start with the molecule.

Row | SMILES | Covalent Binding Assay (% binding) [1] | IC50 (KRAS^WT) | IC50 (KRAS^G12C)
13 | C=CC(=O)N1CCC(c2cc3ncc(-c4ccccc4F)cc3c(=O)[nH]2)C1 (stereo not drawn) [Example 30, 3-(2-Fluorophenyl)-7-[1-(prop-2-enoyl)pyrrolidin-3-yl]-1,6-naphthyridin-5(6H)-one] | 69% | > 20 µM | 5.3 µM
14 | C=CC(=O)N1CCC(c2nc3ccc(-c4ccccc4F)cc3c(=O)[nH]2)C1 (stereo not drawn) [Example 12, 6-(2-Fluorophenyl)-2-[1-(prop-2-enoyl)pyrrolidin-3-yl]quinazolin-4(3H)-one] | 70% | > 20 µM | 6.2 µM
15 | C=CC(=O)N1CCC(c2cc3ncc(-c4c(F)cccc4OC)cc3c(=O)[nH]2)C1 (stereo not drawn) [Example 28, 3-(2-Fluoro-6-methoxyphenyl)-7-[1-(prop-2-enoyl)pyrrolidin-3-yl]-1,6-naphthyridin-5(6H)-one] | 52% | > 20 µM | 10 µM
16 | C=CC(=O)N1CCC(c2nc3ccc(-c4c(F)cccc4OC)cc3c(=O)[nH]2)C1 (stereo not drawn) [Example 11] | 41% | > 20 µM | 16 µM
17 | C=CC(=O)N1CCC(c2cc3ncc(-c4cccnc4N4CCOCC4)cc3c(=O)[nH]2)C1 (stereo not drawn) [Example 35, 3-[2-(Morpholin-4-yl)pyridin-3-yl]-7-[1-(prop-2-enoyl)pyrrolidin-3-yl]-1,6-naphthyridin-5(6H)-one] | 0% | > 20 µM | > 20 µM
18 | C=CC(=O)N1CCC(c2nc3cc(Cl)c(-c4c(C)ccc5[nH]ncc45)cc3c(=O)[nH]2)C1 (stereo not drawn) [Example 25, 7-Chloro-6-(5-methyl-1H-indazol-4-yl)-2-[1-(prop-2-enoyl)pyrrolidin-3-yl]quinazolin-4(3H)-one] | 81% | > 20 µM | 5 µM
19 | C=CC(=O)N1CCC(c2nc3ccc(-c4cc(Cl)cc(C#N)c4)cc3c(=O)[nH]2)C1 (stereo not drawn) [Example 16, 3-Chloro-5-{4-oxo-2-[1-(prop-2-enoyl)pyrrolidin-3-yl]-3,4-dihydroquinazolin-6-yl}benzonitrile] | 0% | > 20 µM | > 20 µM
20 | C=CC(=O)N1CCC(c2nc3ccc(-c4c(O)cccc4F)nc3c(=O)[nH]2)C1 (stereo not drawn) [Example 38, 6-(2-Fluoro-6-hydroxyphenyl)-2[1-(prop-2-enoyl)pyrrolidin-3-yl]pyrido[3,2-d]pyrimidin-4(3H)-one] | 0% | > 20 µM | > 20 µM
21 | C=CC(=O)N1CCC(c2cc3ncc(-c4cc(O)ccc4F)cc3c(=O)[nH]2)C1 (stereo not drawn) [Example 36, 3-(2-Fluoro-5-hydroxyphenyl)-7-[1-(prop-2-enoyl)pyrrolidin-3-yl]-1,6-naphthyridin-5(6H)-one] | 85% | > 20 µM | 2.7 µM
